Molecules are shown by their SMILES.

The first test relates to Haemonchus contortus. As to the kind of experiment: Method A: screening of activity against Haemonchus contortus L1 larvae in microtitre plate (development to L3 / motility). The settings on record: Haemonchus contortus, 96 h; test concentration 0.0025 ppm; 4 days assessment. An excerpt: Method A: Screening Method to Test Activity of Compounds Against Haemonchus contortus.
Broadly, the inhibition is the relative decrease from the control value, in per cent. A high value points to a response far below the control. Compound `CC(C#N)(Cn1nc2c(Cl)cc(Cl)c(Cl)c2n1)NC(=O)c1ccc(OC(F)(F)F)cc1` (single isomer, unassigned; (+)) [Compound 1.096, (+)-N-[1-Cyano-1-methyl-2-(4,5,7-trichloro-2H-benzotriazol-2-yl)-ethyl]-4-trifluoromethoxybenzamide] showed an inhibition at 0.0025 ppm of no less than 90%. `CC(C#N)(Cn1cc2c(Cl)cc(Cl)c(Cl)c2n1)NC(=O)c1ccc(OC(F)(F)C(F)F)cc1` (stereo not shown) [Compound 2.066, N-[1-Cyano-1-methyl-2-(4,6,7-trichloro-2H-indazol-2-yl)ethyl]-4-(1,1,2,2-tetrafluoroethoxy)benzamide] came in with an inhibition at 0.0025 ppm of no less than 90%. Compound `CC(C#N)(Cn1cc2c(Cl)cc(Cl)c(Cl)c2n1)NC(=O)c1ccc(I)cc1` (stereo not shown) [Compound 2.068, N-[1-Cyano-1-methyl-2-(4,6,7-trichloro-2H-indazol-2-yl)ethyl]-4-iodobenzamide] returned an inhibition at 0.0025 ppm of no less than 90%. The same measure, in the same setting: for `CC(C#N)(Cn1cc2c(Cl)cc(Cl)c(Cl)c2n1)NC(=O)c1ccc(C(F)(F)F)cc1` (stereo not shown) [Compound 2.062, N-[1-Cyano-1-methyl-2-(4,6,7-trichloro-2H-indazol-2-yl)ethyl]-4-trifluoromethylbenzamide] the value was no less than 90%.

Still in this test, the particulars now being: Haemonchus contortus, 96 h; test concentration 0.01 ppm; 4 days assessment.
The compound `CC(C#N)(Cn1cc2ncc(Br)cc2n1)NC(=O)c1ccc(Oc2ccccc2)cc1` (stereo not shown) [Compound 3.048, N-[2-(6-Bromo-2H-pyrazolo[4,3-b]pyridin-2-yl)-1-cyano-1-methylethyl]-4-phenoxybenzamide] yielded an inhibition at 0.01 ppm of no less than 90%.

In the case of `CC(C#N)(Cn1nc2c(Cl)cc(Cl)c(Cl)c2n1)NC(=O)c1ccc(OC(F)(F)C(F)F)cc1` (stereo not shown) [Compound 1.103, N-[1-Cyano-1-methyl-2-(4,5,7-trichloro-2H-benzotriazol-2-yl)-ethyl]-4-(1,1,2,2-tetrafluoroethoxy)benzamide], the inhibition at 0.01 ppm is no less than 90%.

On to `COc1nc2cn(CC(C)(C#N)NC(=O)c3ccc(OC(F)(F)F)cc3)nc2cc1Br` (stereo not shown) [Compound 3.052, N-[2-(6-Bromo-5-methoxy-2H-pyrazolo[4,3-b]pyridin-2-yl)-1-cyano-1-methylethyl]-4-trifluoromethoxybenzamide], for which the inhibition at 0.01 ppm was no less than 90%. Turning to `CC(C#N)(Cn1nc2cc(Cl)cnc2c1Br)NC(=O)c1ccc(OC(F)(F)F)cc1` (stereo not shown) [Compound 3.019, N-[2-(3-Bromo-6-chloro-2H-pyrazolo[4,3-b]pyridin-2-yl)-1-cyano-1-methylethyl]-4-trifluoromethoxybenzamide], the inhibition at 0.01 ppm was no less than 90%.

The same test, now with this note: Haemonchus contortus, 96 h; test concentration 0.04 ppm; 4 days assessment.
Compound `CC(C#N)(Cn1cc2c(Cl)cc(Cl)c(Cl)c2n1)NC(=O)c1ccc(Oc2ccccc2)cc1` (stereo not shown) [Compound 2.067, N-[1-Cyano-1-methyl-2-(4,6,7-trichloro-2H-indazol-2-yl)ethyl]-4-phenoxybenzamide] displayed an inhibition at 0.04 ppm of no less than 90%.

For `CC(C#N)(Cn1nc2c(Cl)cc(Cl)c(Cl)c2n1)NC(=O)c1ccc(I)cc1` (stereo not shown) [Compound 1.100, N-[1-Cyano-1-methyl-2-(4,5,7-trichloro-2H-benzotriazol-2-yl)-ethyl]-4-iodobenzamide], the inhibition at 0.04 ppm is no less than 90%. Compound `CC(C#N)(Cn1cc2c(Cl)cc(Cl)c(Cl)c2n1)NC(=O)c1ccc(F)cc1F` (stereo not shown) [Compound 2.228, N-[1-Cyano-1-methyl-2-(4,6,7-trichloro-2H-indazol-2-yl)ethyl]-2,4-difluorobenzamide] registered an inhibition at 0.04 ppm of no less than 90%. The compound `CC(C#N)(Cn1cc2ncc(Br)cc2n1)NC(=O)c1ccc(I)cc1` (stereo not shown) [Compound 3.049, N-[2-(6-Bromo-2H-pyrazolo[4,3-b]pyridin-2-yl)-1-cyano-1-methylethyl]-4-iodobenzamide] registered an inhibition at 0.04 ppm of no less than 90%.

Staying with this test, now noted: Haemonchus contortus, 96 h; test concentration 0.15 ppm; 4 days assessment.
Take `CC(C#N)(Cn1cc2c(Cl)cc(Cl)c(Cl)c2n1)NC(=O)c1cccc(Br)c1` (stereo not shown) [Compound 2.229, 3-Bromo-N-[1-cyano-1-methyl-2-(4,6,7-trichloro-2H-indazol-2-yl)ethyl]benzamide]: the inhibition at 0.15 ppm was no less than 90%. In turn, `CCOc1c2cc(Cl)ccc2nn1CC(C)(C#N)NC(=O)c1ccc(OC(F)(F)F)cc1` (stereo not shown) [Compound 2.014, N-[2-(5-Chloro-3-ethoxy-2H-indazol-2-yl)-1-cyano-1-methylethyl]-4-trifluoromethoxybenzamide] registered an inhibition at 0.15 ppm of no less than 90%. The compound `COc1ccc(C(=O)NC(C)(C#N)Cn2cc3c(Cl)cc(Cl)c(Cl)c3n2)cc1F` (stereo not shown) [Compound 2.227, N-[1-Cyano-1-methyl-2-(4,6,7-trichloro-2H-indazol-2-yl)ethyl]-3-fluoro-4-methoxybenzamide] showed an inhibition at 0.15 ppm of no less than 90%.

Still in this test, the particulars now being: Haemonchus contortus, 96 h; test concentration 0.3 ppm; 4 days assessment.
`C[C@](C#N)(Cn1cc2ncc(Br)cc2n1)NC(=O)c1ccc(OC(F)(F)F)cc1` [Compound 3.025, (−)-N-[2-(6-Bromo-2H-pyrazolo[4,3-b]pyridin-2-yl)-1-cyano-1-methylethyl]-4-trifluoromethoxybenzamide] displayed an inhibition at 0.3 ppm of less than 90%.

The test is the same for the next values; noted with them: Haemonchus contortus, 96 h; test concentration 0.6 ppm; 4 days assessment.
In turn, `CCCOc1c2ccc(Cl)cc2nn1CC(C)(C#N)NC(=O)c1ccc(OC(F)(F)F)cc1` (stereo not shown) [Compound 2.029, N-[2-(6-Chloro-3-propoxy-2H-indazol-2-yl)-1-cyano-1-methylethyl]-4-trifluoromethoxybenzamide] registered an inhibition at 0.6 ppm of no less than 90%.

For the compound `CC(C#N)(Cn1cc2nc(Br)ccc2n1)NC(=O)c1ccc(OC(F)(F)F)cc1` (stereo not shown) [Compound 3.044, N-[1-Cyano-2-(5-bromo-2H-pyrazolo[4,3-b]pyridin-2-yl)-1-methylethyl]-4-trifluoromethoxybenzamide], the inhibition at 0.6 ppm is no less than 90%. Take `CC(C#N)(Cn1cc2ncccc2n1)NC(=O)c1ccc(OC(F)(F)F)cc1` (stereo not shown) [Compound 3.045, N-[1-Cyano-1-methyl-2-(2H-pyrazolo[4,3-b]pyridin-2-yl)ethyl]-4-trifluoromethoxybenzamide]: the inhibition at 0.6 ppm was no less than 90%. `CC(C#N)(Cn1cc2nc(Br)c(Br)cc2n1)NC(=O)c1ccc(OC(F)(F)F)cc1` (stereo not shown) [Compound 3.042, N-[1-Cyano-2-(5,6-dibromo-2H-pyrazolo[4,3-b]pyridin-2-yl)-1-methylethyl]-4-trifluoromethoxybenzamide] came in with an inhibition at 0.6 ppm of no less than 90%. The compound `CC(C#N)(Cn1cc2ccnc(Br)c2n1)NC(=O)c1ccc(OC(F)(F)F)cc1` (stereo not shown) [Compound 4.005, N-[2-(7-Bromo-2H-pyrazolo[3,4-c]pyridin-2-yl)-1-cyano-1-methylethyl]-4-trifluoromethoxybenzamide] returned an inhibition at 0.6 ppm of no less than 90%. Same read-out and setting: for `CCCCCCc1ccc(C(=O)NC(C)(C#N)Cn2cc3ncc(Br)cc3n2)cc1` (stereo not shown) [Compound 3.051, N-[2-(6-Bromo-2H-pyrazolo[4,3-b]pyridin-2-yl)-1-cyano-1-methylethyl]-4-hexylbenzamide] the value was no less than 90%.

Another test deals with Haemonchus contortus. As to the kind of experiment: Method B: activity against Haemonchus contortus in vivo in Mongolian gerbil. The arrangement: species or system Mongolian gerbil (Meriones unguiculatus). Conditions: po, 72 h, oral gavage, dose 0.3 mg/kg, read-out: reduction in nematode infection. On the procedure:
Method B: Screening Method to Test Activity of Compounds Against Haemonchus contortus In Vivo in Mongolian Gerbil (Meriones unguiculatus).
Mongolian gerbils, at least five weeks old, were immunosuppressed and artificially infected with ca. 1000 ensheathed Haemonchus contortus third instar larvae. Six days after infection, the Mongolian gerbils were treated by oral gavage with the test compounds, dissolved in a mixture of 2 parts DMSO and 1 part polyethylene glycol (PEG400), at doses of 100 mg/kg and dissolved in pure polyethylene glycol (PEG400) at doses of 10 and 1 mg/kg. Mongolian gerbils treated only with the placebo (2 parts DMSO and 1 part PEG400 or pure PEG400) served as controls. On day 9 (3 days after treatment) the jirds were euthanized and necropsied for recovery of parasites from the stomach. Efficacy was calculated as the average % reduction in the number of worms in each test group compared with the average number of worms from the control group. […] Compound numbers 1.001, 1.008, 1.012, 1.013 and 1.014 provided at least 95% reduction in nematode in Mongolian gerbils treated by oral gavage with test article at a dose of 100 mg/kg. Compound numbers 1.012, 1.033, 1.064, 2.008, 2.037, 2.038, 2.040, 2.041, 3.001 provided at least 95% reduction in nematode infection at a dose of 10 mg/kg. Compound numbers 1.094, 1.096, 2.048, 3.001, 3.007 and 3.009, provided at least 95% reduction in nematode infection at a dose of 1 mg/kg. Compound numbers 3.006, 3.017 and 3.019 provided at least 95% reduction in nematode infection at a dose of 0.5 mg/kg. Compound numbers 3.005, 3.011 and 3.012 provided at least 95% reduction in nematode infection at a dose of 0.3 mg/kg. The eutomer compound number 3.024 provided at least 95% reduction in nematode infection at a dose of 0.1 mg/kg.
With `C[C@](C#N)(Cn1cc2ncc(Br)cc2n1)NC(=O)c1ccc(OC(F)(F)F)cc1` [Compound 3.025, (−)-N-[2-(6-Bromo-2H-pyrazolo[4,3-b]pyridin-2-yl)-1-cyano-1-methylethyl]-4-trifluoromethoxybenzamide], the inhibition in vivo at 0.3 mg/kg is less than 95%. Consider `CC(C#N)(Cn1cc2ncc(Cl)cc2n1)NC(=O)c1ccc(OC(F)(F)F)cc1` (stereo not shown) [Compound 3.005, N-[2-(6-Chloro-2H-pyrazolo[4,3-b]pyridin-2-yl)-1-cyano-1-methylethyl]-4-trifluoromethoxybenzamide], for which the inhibition in vivo at 0.3 mg/kg was no less than 95%.

The same test, now with this note: po, 72 h, oral gavage, dose 1 mg/kg, necropsy 3 days after treatment, read-out: reduction in nematode infection.
On to `CC(C#N)(Cn1nc2c(Cl)cc(Cl)c(Cl)c2n1)NC(=O)c1ccc(OC(F)(F)F)cc1` (single isomer, unassigned; (+)) [Compound 1.096, (+)-N-[1-Cyano-1-methyl-2-(4,5,7-trichloro-2H-benzotriazol-2-yl)-ethyl]-4-trifluoromethoxybenzamide], for which the inhibition in vivo at 1 mg/kg is no less than 95%.
